{"source": "patent US20240344020A1", "about": "“CULTURE MEDIUM FOR LUNG CANCER EPITHELIAL CELLS, CULTURE METHOD, AND APPLICATION THEREOF” (PRECEDO PHARMACEUTICALS CO., LTD, priority 2021, published 2024)", "molecules": {"B1": {"name": "fibroblast growth factor 7: growth factor from Sino Biological Inc. (protein, UniProt P21781 32-194, looked up)", "Fibroblast growth factor 7": "CNDMTPEQMATNVNCSSPERHTRSYDYMEGGDIRVRRLFCRTQWYLRIDKRGKVKGTQEMKNNYNIMEIRTVAVGIVAIKGVESEFYLAMNKEGKLYAKKECNEDCNFKELILENHYNTYASAKWTHNGGEMFVALNQKGIPVRGKKTKKEQKTAHFLPMAIT"}}, "data": [{"test_system": "primary lung cancer cells (No. B5)", "experiment": "Effects of different factors added to basic medium BM on proliferation of primary lung cancer cells (cell count after 12 days)", "format": "cell-based, human", "conditions": "factor added alone to BM at the concentrations of Table 3; 12 days culture; FIGS. 1A-D", "experimental": "Extracellular matrix gel (Matrigel®) (manufactured by BD Biosciences) was diluted with serum-free DMEM/F12 medium at a ratio of 1:100 to prepare an extracellular matrix diluent. The extracellular matrix diluent was added to a 48-well culture plate with 500 μl/well to completely cover the bottom of the wells of the culture plate. The culture plate was let stand for 1 hour in a 37° C. incubator. After 1 hour, the extracellular matrix diluent was removed to provide a Matrigel-coated plate.\nPreparation of basic medium (abbreviated as BM): BM was prepared by adding 0.2 vol. % of Primocin (purchased from Invivogen, with a concentration of 50 mg/ml) to the commercial DMEM/F-12 medium to provide a final concentration of 100 μg/ml.\nNext, different kinds and concentrations of additive factors (Table 3) were added to the basic medium (BM), so as to prepare culture mediums for lung cancer epithelial cells containing different additive components.\nThe culture mediums with different components were added at a volume of 500 μl/well to 48-well plates which were coated with extracellular matrix gel (Matrigel). Lung cancer cells (No. B5) isolated from lung cancer tissues according to the same method as described in Example 1 were inoculated at a cell density of 2×10^4 cells/cm^2 in the above-mentioned 48-well culture plates which were coated with Matrigel. After surface disinfection, the plates were placed in a 37° C., 5% CO2 incubator (purchased from Thermo Fisher), and the same number of freshly isolated lung cancer tumor cells (No. B5) were cultured under different medium formulations. The culture mediums were replaced every 4 days after the start of culture. After 12 days of culture, cell counts were performed. The basic medium (BM) without addition of any additive was used as a control. The results were shown in FIGS. 1A-D. The ordinate in the figures represents the ratio of the number of cells obtained after culture in different mediums to the number of cells obtained after culture in basic medium BM.", "values": [{"molecule": "CN1C(=O)C(c2c(F)cccc2F)N(C)c2nc(Nc3ccc(S(N)(=O)=O)cc3)ncc21", "note": "(stereo not shown) [Compound 1, 4-((7-(2,6-difluorophenyl)-5,8-dimethyl-6-oxo-5,6,7,8-tetrahydropteridin-2-yl)amino)benzsulfamide]", "effect on cell proliferation (ratio of cell number to that in basic medium BM)": "certain promoting effects on cell proliferation"}, {"molecule": "Cc1cccc(-c2nn(C(=S)Nc3ccccc3)cc2-c2ccnc3ccccc23)n1", "note": "[Compound A83-01, A83-01, reference compound]", "effect on cell proliferation (ratio of cell number to that in basic medium BM)": "certain promoting effects on cell proliferation"}, {"molecule": "C[C@@H](N)[C@H]1CC[C@H](C(=O)Nc2ccncc2)CC1", "note": "[Compound Y27632, Y27632, reference compound]", "effect on cell proliferation (ratio of cell number to that in basic medium BM)": "certain promoting effects on cell proliferation"}, {"molecule": "hepatocyte growth factor: growth factor from Sino Biological Inc.", "effect on cell proliferation (ratio of cell number to that in basic medium BM)": "certain promoting effects on cell proliferation"}, {"molecule": "insulin-like growth factor 1: growth factor from Sino Biological Inc.", "effect on cell proliferation (ratio of cell number to that in basic medium BM)": "certain promoting effects on cell proliferation"}, {"molecule": "interleukin 6: cytokine from Sino Biological Inc.", "effect on cell proliferation (ratio of cell number to that in basic medium BM)": "certain promoting effects on cell proliferation"}, {"molecule": "B1", "effect on cell proliferation (ratio of cell number to that in basic medium BM)": "certain promoting effects on cell proliferation"}]}]}
